Results published in patent US20080146555A1, “Uses of Kinase Inhibitors and Compositions Thereof” (GPC Biotech, Inc, priority 2004, published 2008).
Where a name gives a salt, the structure may show the parent alone. Read-outs that look alike come from different tables or passages of the source.

Tests used:
MEK1 = target: T1, MEK1 (Homo sapiens, UniProt Q02750); assay: MEK1 kinase assay; format: biochemical
T1 construct: purchased Upstate 14-429
Protocol: 1. Assay Dilution Buffer I (ADBI, Catalog #20-108): 20 mM MOPS, pH 7.2, 25 mM β-glycerol phosphate, 5 mM EGTA, 1 mM sodium orthovanadate, 1 mM dithiothreitol. • 2. Magnesium/ATP Cocktail (Catalog #20-113): 500 μM cold ATP and 75 mM magnesium chloride in ADBI. • 3. MEK1, active: Dilute to 0.5-5 ng/μl with ADBI containing 0.03% Brij-35 and 1 mg/ml BSA. Use 5 μl per assay point. • 4. MAP Kinase 2/Erk2, unactive (Catalog #14-198): Use 1 μg per assay point. • 5. MBP Substrate (Catalog #13-104): Prepare a 3.33 mg/ml stock solution with ADBI. Use 2.5 μl per assay for a final concentration of 0.33 mg/ml per assay point. • 6. Magnesium/ATP Cocktail (Catalog #20-113): 75 mM MgCl2 and 500 μM ATP in 20 mM MOPS, pH 7.2, 25 mM β-glycerol phosphate, 5 mM EGTA, 1 mM sodium orthovanadate, 1 mM dithiothreitol.
7. [γ-^32P]ATP: Stock 1 mCi/100 μl (3000 Ci/mmol, obtained from Perkin Elmer, Catalog #BLU002A). Make 10 μl aliquots (100 μCi/vial). Before starting the assay, dilute the Magnesium/ATP Cocktail 1:1 with sterile, distilled water. Then dilute an aliquot of [γ-^32P]ATP to 1 μCi/μl with 90 μl of the diluted Magnesium/ATP Cocktail. […]
• 1. Add 1 μl of ADBI to a microcentrifuge tube. • 2. Add 5 μl of Magnesium/ATP cocktail. • 3. Add 5 μl of MEK1, active (2.5-25 ng) • 4. Add 4 μl (1 μg) of unactive MAP Kinase 2/Erk 2. • 5. Incubate at 30° C. for 30 minutes. • 6. Remove 1 μl of this mixture and add to Stage Two component mixture.
• 1. Add 12.5 μl of ADBI. • 2. Add 2.5 μl of MBP stock solution. • 3. Add 10 μl of diluted [γ-^32P] ATP. • 4. Incubate for at 30° C. 10 minutes. • 5. Transfer a 20 μl aliquot onto the center of a 2 cm×2 cm P81 paper square. • 6. Wash the paper squares three times with 0.75% phosphoric acid for 5 minutes per wash. • 7. Wash the paper squares once with acetone for five minutes. • 8. Transfer the paper squares to a scintillation vial and add 5 ml scintillation cocktail. • 9. Read in scintillation counter. Compare cpm of enzyme samples to cpm of control samples that contain no enzyme (background control).

Rsk3 = target: T2, Rsk3 (Homo sapiens, UniProt Q15349); assay: Rsk3 kinase assay; format: biochemical
T2 construct: purchased Upstate 14-462
Protocol: • 1. 2.5× Reaction Buffer: 20 mM MOPS, pH 7.0, 1 mM EGTA. • 2. Enzyme Dilution Buffer (EDB): 20 mM MOPS, pH 7.0, 1 mM EDTA, 0.01% Brij-35, 5% glycerol, 0.1% β-mercaptoethanol, 1 mg/ml BSA. • 3. RSK3, active: Dilute to 4-40 ng/μl with EDB. Use 2.5 μl per assay point. • 4. MAPKAP Kinase 2 substrate peptide (Catalog #12-240): Prepare a 2.5 mM stock. Use 2.5 μl per assay point for a final concentration of 250 μM per assay. • 5. Magnesium/ATP Cocktail (Catalog #20-113): 75 mM MgCl2 and 500 μM ATP in 20 mM MOPS, pH 7.2, 25 mM β-glycerol phosphate, 5 mM EGTA, 1 mM sodium orthovanadate, 1 mM dithiothreitol. • 6. [γ-^32P]ATP: Stock 1 mCi/100 μl (3000 Ci/mmol, obtained from PerkinElmer, Catalog #BLU002A). Make 10 μl aliquots (100 μCi/vial). Before starting the assay, dilute the Magnesium/ATP Cocktail 1:1 with sterile, distilled water. Then dilute an aliquot of [γ-^32P]ATP to 1 μCi/μl with 90 μl of the diluted Magnesium/ATP Cocktail. […]
• 1. Add 10 μl of 2.5× Reaction Buffer per assay. • 2. Add 2.5 μl of MAPKAP Kinase 2 substrate peptide. • 3. Add 2.5 μl of RSK3, active (10-100 ng). • 4. Add 10 μl of the diluted [γ^32P]ATP mixture. • 5. Incubate for 10 minutes at 30° C. • 6. Transfer a 20 μl aliquot onto the center of a 2 cm×2 cm P81 paper. • 7. Wash the assay squares three times for 5 minutes with 0.75% phosphoric acid. • 8. Wash the assay squares once for 5 minutes with acetone. • 9. Transfer the assay squares to vial and add 5 ml scintillation cocktail. • 10. Read in scintillation counter. Compare cpm of enzyme samples to cpm of control samples that contain background control.

[1] = kinase panel, 10 μM ATP, read-out: MAPK 1 / MEK1 IC50
[2] = read-out: MAP2K1 Inhibition (IC50)
[3] = read-out: RPS6KA2 Inhibition (IC50)

T1 sequence (Q02750 whole entry, species assumed): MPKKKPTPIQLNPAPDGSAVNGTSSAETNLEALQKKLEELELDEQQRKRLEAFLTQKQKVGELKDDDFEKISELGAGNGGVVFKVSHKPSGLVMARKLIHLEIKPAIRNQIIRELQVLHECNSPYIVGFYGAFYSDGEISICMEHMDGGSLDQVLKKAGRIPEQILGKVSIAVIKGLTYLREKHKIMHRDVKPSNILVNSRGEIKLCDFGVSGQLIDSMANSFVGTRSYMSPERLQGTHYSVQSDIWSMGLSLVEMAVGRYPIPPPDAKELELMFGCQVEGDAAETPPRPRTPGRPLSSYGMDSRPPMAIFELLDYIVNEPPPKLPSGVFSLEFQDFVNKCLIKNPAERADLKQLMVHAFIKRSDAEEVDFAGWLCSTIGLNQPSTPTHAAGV
T2 sequence (Q15349 whole entry, species assumed): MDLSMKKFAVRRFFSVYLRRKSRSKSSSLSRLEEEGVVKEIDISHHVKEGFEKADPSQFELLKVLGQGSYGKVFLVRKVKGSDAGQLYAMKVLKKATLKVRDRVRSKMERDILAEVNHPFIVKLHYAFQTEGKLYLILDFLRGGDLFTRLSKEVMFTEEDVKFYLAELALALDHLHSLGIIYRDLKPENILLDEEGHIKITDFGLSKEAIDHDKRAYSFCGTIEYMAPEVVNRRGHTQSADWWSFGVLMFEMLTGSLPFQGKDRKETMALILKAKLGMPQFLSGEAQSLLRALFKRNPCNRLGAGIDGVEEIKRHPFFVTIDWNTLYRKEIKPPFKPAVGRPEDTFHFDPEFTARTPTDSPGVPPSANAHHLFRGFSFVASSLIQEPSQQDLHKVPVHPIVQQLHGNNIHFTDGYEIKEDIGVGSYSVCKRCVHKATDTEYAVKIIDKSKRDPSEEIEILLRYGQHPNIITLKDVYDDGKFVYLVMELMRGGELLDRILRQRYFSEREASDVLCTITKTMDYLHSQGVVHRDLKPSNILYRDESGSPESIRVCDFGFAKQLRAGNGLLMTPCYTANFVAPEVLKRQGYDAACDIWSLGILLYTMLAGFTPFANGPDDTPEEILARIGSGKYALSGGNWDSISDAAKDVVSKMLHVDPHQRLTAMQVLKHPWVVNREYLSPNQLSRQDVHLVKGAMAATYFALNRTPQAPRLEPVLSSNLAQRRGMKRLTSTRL

SMILES | IC50 (MEK1; [1]) [nM] | IC50 (MEK1; [2]) [nM] | IC50 (Rsk3; [3]) [nM] | IC50 (Rsk3; kinase panel, 10 μM ATP, read-out: Ribosomal protein S6 kinase 3 (Rsk3) IC50) [nM]
COCCN1CCN(Cc2ccc(-c3n[nH]c4c3C(=O)c3c(NC(=O)NN5CCOCC5)cccc3-4)cc2)CC1 [Compound B16, N-[3-(4-{[4-(2-methoxyethyl)piperazinyl]methyl}phenyl)-4-oxoindeno[2,3-d]pyrazol-5-yl](morpholin-4-ylamino)carboxamide dihydrochloride] | < 100 | < 100 | < 500 | –
CC(C)N1CCN(C(=O)COc2ccc(-c3n[nH]c4c3C(=O)c3c(NC(=O)NN5CCOCC5)cccc3-4)cc2)CC1 [Compound A37] | 10 to 100 | < 50 | < 50 | 10 to 100
